{"source": "patent US20210283163A1", "about": "“COMPOSITIONS AND METHODS FOR THE TREATMENT OF ACUTE AND CHRONIC PRURITIS” (Duke University, priority 2018, published 2021)", "format_in_all_cases": "cell-based", "key": {"TRPV3": {"target": "T1, TRPV3 (Mus musculus, UniProt Q8K424)", "T1 construct": "expressed in transfected cells; host or cells: CHO cells (ATCC CRL-9096), plasmid pcDNA3.1-mTrpv3, a gift from Korea University", "T1 sequence (Q8K424 1-791)": "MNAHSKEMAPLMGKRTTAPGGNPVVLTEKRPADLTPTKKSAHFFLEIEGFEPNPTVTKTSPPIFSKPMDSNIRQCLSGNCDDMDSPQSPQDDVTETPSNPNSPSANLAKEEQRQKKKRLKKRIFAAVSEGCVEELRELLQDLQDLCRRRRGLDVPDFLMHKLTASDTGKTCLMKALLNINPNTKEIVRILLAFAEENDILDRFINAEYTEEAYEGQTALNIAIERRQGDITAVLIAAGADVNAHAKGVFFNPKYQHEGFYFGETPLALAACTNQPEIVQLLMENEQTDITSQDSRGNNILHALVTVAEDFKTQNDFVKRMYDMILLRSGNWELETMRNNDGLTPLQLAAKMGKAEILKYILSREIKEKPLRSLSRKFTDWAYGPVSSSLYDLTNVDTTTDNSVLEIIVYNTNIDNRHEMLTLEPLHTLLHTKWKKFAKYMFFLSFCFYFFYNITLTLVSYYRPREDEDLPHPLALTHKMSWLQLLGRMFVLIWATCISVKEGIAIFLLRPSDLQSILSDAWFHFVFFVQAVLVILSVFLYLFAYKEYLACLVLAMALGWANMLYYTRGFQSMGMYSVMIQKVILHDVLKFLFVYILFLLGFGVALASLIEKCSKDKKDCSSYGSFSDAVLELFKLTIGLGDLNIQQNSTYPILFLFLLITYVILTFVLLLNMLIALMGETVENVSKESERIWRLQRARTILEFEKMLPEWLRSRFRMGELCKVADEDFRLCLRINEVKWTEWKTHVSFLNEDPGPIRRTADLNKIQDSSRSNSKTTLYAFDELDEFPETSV", "assay": "Whole-cell patch clamp in CHO cells transfected with mouse Trpv3 cDNA", "conditions": "miR-711 10 μM; carvacrol 300 μM", "procedure": "(§1) Constructs. The cDNAs of mouse pcDNA3.1-Trpa1, pcDNA3.1-Trpv1, pcDNA3.1-Trpv2, pcDNA3.1-Trpv3, and pcDNA3.1-Trpv4 were kindly provided Dr. Sun Work Hwang from Korea University. Mouse Trpa1 cDNA was subcloned into pCGN-HA backbone (Addgene) using In-Fusion HD Cloning Kit (Clontech Laboratories, CA). Q5 Site-Directed Mutagenesis Kit was used to generate mTrpa1 mutant (M1-M13) based on pCGN-mTrpa1.\n(§2) Cell Culture and Transfection. CD4^+ Myla cell line was cultured in RPMI 1640 media (GIBCO), supplemented with 2 mM Glutamine (GIBCO), 100 U/mL IL-2 (Sigma), 100 U/mL IL-4 (Sigma), and 10% human AB serum (Sigma). HuT 102 cell line was cultured in RPMI 1640 supplemented with pyruvate, HEPES, and 10% (v/v) fetal bovine serum (HyClone). HEK293-hTRPA1 stable cell line was cultured in MEM (GIBCO) containing 2 mM Glutamine, 4 μg/mL Blasticidin, 10% FBS (v/v). B16 and CHO cells were cultured in high glucose (4.5 g/L) Dulbecco's Modified Eagle's Medium (GIBCO) containing 10% (v/v) fetal bovine serum (GIBCO). Culture media were supplemented with 50 units/mL of penicillin and 50 μg/mL streptomycin, and cultures were maintained with 5% CO2 in 37° C. incubator. Transfection (2 μg cDNA) was performed with Lipofectamine™ 2000 Reagent (Invitrogen) at 80% confluency and the transfected cells were cultured in the same media for 48 hr before electrophysiological and biochemical studies. […]"}, "TRPV4": {"target": "T2, TRPV4 (Mus musculus, UniProt Q9EPK8)", "T2 construct": "expressed in transfected cells; host or cells: CHO cells (ATCC CRL-9096), plasmid pcDNA3.1-mTrpv4, a gift from Korea University", "T2 sequence (Q9EPK8 whole entry)": "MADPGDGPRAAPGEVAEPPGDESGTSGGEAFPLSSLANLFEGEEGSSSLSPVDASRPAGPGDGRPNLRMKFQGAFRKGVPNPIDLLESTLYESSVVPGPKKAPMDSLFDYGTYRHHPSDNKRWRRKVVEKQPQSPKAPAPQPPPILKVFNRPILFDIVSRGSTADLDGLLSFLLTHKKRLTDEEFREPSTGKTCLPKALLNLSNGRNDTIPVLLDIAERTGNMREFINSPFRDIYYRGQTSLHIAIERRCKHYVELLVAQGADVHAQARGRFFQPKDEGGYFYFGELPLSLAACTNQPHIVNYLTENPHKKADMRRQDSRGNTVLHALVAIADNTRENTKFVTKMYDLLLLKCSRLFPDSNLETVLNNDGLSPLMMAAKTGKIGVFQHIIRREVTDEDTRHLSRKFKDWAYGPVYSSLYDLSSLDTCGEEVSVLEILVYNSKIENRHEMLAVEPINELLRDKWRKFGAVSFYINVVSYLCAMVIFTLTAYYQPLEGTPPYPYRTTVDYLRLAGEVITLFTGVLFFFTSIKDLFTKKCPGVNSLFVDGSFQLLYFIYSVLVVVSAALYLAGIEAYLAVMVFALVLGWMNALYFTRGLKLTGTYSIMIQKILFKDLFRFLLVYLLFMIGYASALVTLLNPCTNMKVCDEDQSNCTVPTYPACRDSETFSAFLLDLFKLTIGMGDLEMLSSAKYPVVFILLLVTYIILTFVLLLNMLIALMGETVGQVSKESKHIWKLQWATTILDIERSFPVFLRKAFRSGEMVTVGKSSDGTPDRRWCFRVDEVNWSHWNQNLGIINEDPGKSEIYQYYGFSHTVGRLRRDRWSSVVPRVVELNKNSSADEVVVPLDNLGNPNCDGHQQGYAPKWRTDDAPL", "assay": "Whole-cell patch clamp in CHO cells transfected with mouse Trpv4 cDNA", "conditions": "miR-711 10 μM; GSK1016790A 1 μM", "procedure": "as §1, §2"}, "hTRPA1": {"target": "hTRPA1 (Homo sapiens, UniProt O75762)", "sequence (O75762 whole entry)": "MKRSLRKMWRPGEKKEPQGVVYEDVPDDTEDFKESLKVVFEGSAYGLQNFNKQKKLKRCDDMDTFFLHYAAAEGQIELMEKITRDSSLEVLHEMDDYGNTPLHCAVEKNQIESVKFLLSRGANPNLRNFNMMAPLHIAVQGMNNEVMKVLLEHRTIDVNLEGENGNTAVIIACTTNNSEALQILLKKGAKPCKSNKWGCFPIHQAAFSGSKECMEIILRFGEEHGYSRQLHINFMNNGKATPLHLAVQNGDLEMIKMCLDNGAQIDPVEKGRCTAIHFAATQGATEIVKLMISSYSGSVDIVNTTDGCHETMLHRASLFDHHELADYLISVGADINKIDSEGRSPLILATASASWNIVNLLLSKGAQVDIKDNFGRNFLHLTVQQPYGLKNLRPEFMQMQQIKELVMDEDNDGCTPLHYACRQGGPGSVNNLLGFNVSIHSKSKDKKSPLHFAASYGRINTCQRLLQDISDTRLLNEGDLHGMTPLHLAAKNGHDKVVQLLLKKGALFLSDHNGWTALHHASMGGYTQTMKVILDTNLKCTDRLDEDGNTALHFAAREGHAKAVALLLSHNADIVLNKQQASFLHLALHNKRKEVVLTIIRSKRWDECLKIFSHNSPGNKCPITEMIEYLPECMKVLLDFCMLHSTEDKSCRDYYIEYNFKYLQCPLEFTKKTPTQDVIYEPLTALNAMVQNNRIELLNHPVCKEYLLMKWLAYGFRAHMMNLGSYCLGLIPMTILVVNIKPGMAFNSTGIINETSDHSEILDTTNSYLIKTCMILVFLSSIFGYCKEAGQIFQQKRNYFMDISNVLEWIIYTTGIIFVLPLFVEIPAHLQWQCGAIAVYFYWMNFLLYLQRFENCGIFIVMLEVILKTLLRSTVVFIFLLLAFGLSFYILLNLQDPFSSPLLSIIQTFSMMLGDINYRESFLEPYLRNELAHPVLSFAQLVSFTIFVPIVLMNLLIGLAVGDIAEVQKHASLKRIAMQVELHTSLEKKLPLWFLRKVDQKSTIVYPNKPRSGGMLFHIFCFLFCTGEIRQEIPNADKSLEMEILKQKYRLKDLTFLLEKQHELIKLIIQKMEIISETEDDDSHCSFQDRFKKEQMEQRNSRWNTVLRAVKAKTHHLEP", "assay": "Calcium imaging (Fura-2) in TRPA1-expressing HEK293 cells", "conditions": "50 μM", "procedure": "Ca^2+ Imaging. Ca ^2+ imaging was conducted in mouse DRG and TG neurons from Pirt-GCaMP3 mice (Anderson et al., Neurosci. Bull. 2018, 34, 194-199) at room temperature. The imaging buffer includes 140 mM NaCl, 10 mM D-(+)-Glucose, 1 mM MgCl2, 2 mM CaCl2, 5 mM KCl, 10 mM HEPES, pH=7.4, osmolarity=320 mOsm/L. Calcium signals were measured using green emitted light in a 3 s interval. Ca ^2+ signal amplitudes were presented as ΔF/F0=(Ft−F0)/F0 as ratio of fluorescence difference (Ft−F0) to basal value (F0). The average fluorescence intensity in the baseline period was taken as F0. Ca ^2+ imaging was also analyzed in HEK293-TRPA1 cell line after loading cells with […] fura2-AM (Invitrogen) for 40 min in the Ca^2+ imaging buffer. Ca^2+ imaging protocol was a ratio metric method with 340/380-nm wavelength light for dual excitation. Data were presented as ΔR/R0, determined as the fraction ΔR (Rt−R0) of the increase of a given ratio over baseline ratio (R0)."}}}
{"substance": "miR-711: mmu-miR-711: gggacccggggagagauguaag (SEQ ID NO: 5) (GGGACCCGGGGAGAGAUGUAAG; chemistry not given here)", "values": [{"measurement": "inward currents", "setting": "TRPV3", "value": "failed to trigger inward currents"}, {"measurement": "inward currents", "setting": "TRPV4", "value": "failed to trigger inward currents"}, {"measurement": "calcium responses in TRPA1-expressing HEK293 cells", "setting": "hTRPA1", "value": "evoked calcium responses"}]}
